From patent US11771676B2, “Method for preparing high-load oral paclitaxel capsule for slow release in colon” (Jiangnan University, priority 2022, dated 2023)

Assay: Determination of stability in upper digestive tract and simulated colonic release (SGF, SIF, SCF; dialysis bag, UV 230 nm)
Assay type: physicochemical
Conditions: cumulative release after SGF and SIF
Description: 6. Determination of Stability in Upper Digestive Tract and Simulated Colonic Release
A simulated gastric fluid (SGF, a pH of 1.2) consists of 2.95 g/L of sodium chloride and 8 ml/L of hydrochloric acid. A paclitaxel capsule (1 mg/ml of paclitaxel (dry weight)) is added to the SGF containing 3.2 g/L of pepsin and placed in a sealed dialysis bag (8,000-14,000 Da), then the dialysis bag is soaked in the SGF containing 3% (v/w) Tween-20 and stirred at 100 rpm at 37±0.5° C., and 2 ml of a release medium is withdrawn at 30 min, 60 min, 90 min, and 120 min respectively. An equal volume of the fresh SGF is added to maintain a volume after each sampling.
A pH value of the SGF system is adjusted to 6.8 with disodium hydrogen phosphate and a fresh porcine trypsin solution at 30 mg/mL is added into the dialysis bag to obtain a simulated intestinal fluid (SIF). 2 ml of a release medium is taken out at 30 min, 60 min, 90 min, and 120 min respectively and a concentration of paclitaxel is determined. An equal volume of the fresh release medium is added to maintain a volume after each sampling. […]
The concentration of paclitaxel is measured with an ultraviolet spectrophotometer at a wavelength of 230 nm.

CC(=O)O[C@H]1C(=O)[C@@]2(C)[C@H]([C@H](OC(=O)c3ccccc3)[C@]3(O)C[C@H](OC(=O)[C@H](O)[C@@H](NC(=O)c4ccccc4)c4ccccc4)C(C)=C1C3(C)C)[C@]1(OC(C)=O)CO[C@@H]1C[C@@H]2O [raw paclitaxel, paclitaxel]
release amount (dissolution rate) in a stomach-small intestine: about 25%
